Compound: CC(C)C[C@@H](C(=O)N[C@H](C(=O)OC1CCCC1)c1ccccc1)[C@H](O)C(=O)NO [Tosedostat] + CCNC(=O)c1noc(-c2cc(C(C)C)c(O)cc2O)c1-c1ccc(CN2CCOCC2)cc1 [Luminespib] (partner 0.01 µM)
Assay: relative viability (nuclei count vs DMSO), 5 days (fraction); higher = more cells survive
Settings: first compound 0.02 µM
Procedure, shortened: (§1)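 For relative viability, nuclei counts in treated wells were divided by those in vehicle wells. Lung cancer cell lines had been pin-tool dosed in 1536-well plates the day after seeding and cultured for 5 days, then fixed and stained in one step (final 0.05% Triton X-100, 1% formaldehyde, 1 ug/ml Hoechst) and imaged at 4×. Doses were one drug alone or a fixed anchor-drug dose plus five library-drug doses (not always all listed) in √10 steps, and values are duplicate-plate medians.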

Cell Line	relative viability
NCI-H647	0.11
LCLC-97TM1	0.775
NCI-H2126	0.848
A-427	0.882
NCI-H650	0.952
RERF-LC-KJ	1.35
NCI-H1915	0.864
NCI-H661	0.958
NCI-H441	0.347
NCI-H1975	0.208
NCI-H1395	0.635
201T	0.969
NCI-H2023	0.912
HCC-827	0.587
NCI-H322M	0.835

Same assay, conditions: first compound 0.06325 µM

Cell Line	relative viability
NCI-H647	0.212
LCLC-97TM1	0.81
NCI-H2126	0.905
A-427	0.739
NCI-H650	0.773
RERF-LC-KJ	1.23
NCI-H1915	0.79
NCI-H661	0.957
NCI-H441	0.351
NCI-H1975	0.195
NCI-H1395	0.774
201T	1.2
NCI-H2023	0.628
HCC-827	0.73
NCI-H322M	0.895

Same assay, conditions: first compound 0.2 µM

Cell Line	relative viability
NCI-H647	0.171
LCLC-97TM1	0.688
NCI-H2126	0.91
A-427	1.01
NCI-H650	0.834
RERF-LC-KJ	1.36
NCI-H1915	0.814
NCI-H661	0.977
NCI-H441	0.348
NCI-H1975	0.382
NCI-H1395	0.664
201T	1.14
NCI-H2023	0.796
HCC-827	0.651
NCI-H322M	0.862

Same assay, conditions: first compound 0.6325 µM

Cell Line	relative viability
NCI-H647	0.334
LCLC-97TM1	0.644
NCI-H2126	0.878
A-427	0.919
NCI-H650	0.714
RERF-LC-KJ	1.08
NCI-H1915	0.803
NCI-H661	0.909
NCI-H441	0.332
NCI-H1975	0.325
NCI-H1395	0.663
201T	1.24
NCI-H2023	0.571
HCC-827	0.362
NCI-H322M	0.826

Same assay, conditions: first compound 2 µM

Cell Line	relative viability
NCI-H647	0.167
LCLC-97TM1	0.652
NCI-H2126	0.654
A-427	1.08
NCI-H650	0.755
RERF-LC-KJ	1.2
NCI-H1915	0.608
NCI-H661	0.885
NCI-H441	0.306
NCI-H1975	0.19
NCI-H1395	0.559
201T	1.18
NCI-H2023	0.614
HCC-827	0.695
NCI-H322M	0.788

Compound: CC1=NN=C(O1)C2=NN=C(C=C2)N3CCC(CC3)OC4=C(C=CC(=C4)F)Cl + Cc1cc(Nc2cc(N3CCN(C)CC3)nc(Sc3ccc(NC(=O)C4CC4)cc3)n2)n[nH]1 [Tozasertib] (partner 0.1 µM)
Assay: as above
Settings: first compound 0.253 µM
Procedure, shortened: as §1

Cell Line	relative viability
NCI-H647	0.166
LCLC-97TM1	0.182
NCI-H2126	0.765
A-427	0.23
NCI-H650	0.724
RERF-LC-KJ	0.341
NCI-H1915	0.265
NCI-H661	0.305
NCI-H441	0.457
NCI-H1395	0.69
201T	0.421
NCI-H2023	0.301
HCC-827	0.174
NCI-H322M	0.488

Same assay, conditions: first compound 0.8 µM

Cell Line	relative viability
NCI-H647	0.105
LCLC-97TM1	0.137
NCI-H2126	0.786
NCI-H650	0.698
RERF-LC-KJ	0.351
NCI-H1915	0.222
NCI-H661	0.319
NCI-H441	0.388
NCI-H1975	0.595
NCI-H1395	0.581
201T	0.432
NCI-H2023	0.216
HCC-827	0.161
NCI-H322M	0.482

Same assay, conditions: first compound 2.53 µM

Cell Line	relative viability
NCI-H647	0.126
LCLC-97TM1	0.172
NCI-H2126	0.763
A-427	0.168
NCI-H650	0.676
RERF-LC-KJ	0.367
NCI-H1915	0.222
NCI-H661	0.308
NCI-H441	0.423
NCI-H1975	0.48
NCI-H1395	0.72
201T	0.427
NCI-H2023	0.205
HCC-827	0.171
NCI-H322M	0.422

Same assay, conditions: first compound 8 µM

Cell Line	relative viability
NCI-H647	0.0876
LCLC-97TM1	0.207
NCI-H2126	0.715
A-427	0.168
NCI-H650	0.682
RERF-LC-KJ	0.322
NCI-H1915	0.192
NCI-H661	0.265
NCI-H441	0.419
NCI-H1975	0.261
NCI-H1395	0.683
201T	0.421
NCI-H2023	0.147
HCC-827	0.144
NCI-H322M	0.436

Compound: CC(C)C[C@@H](C(=O)N[C@H](C(=O)OC1CCCC1)c1ccccc1)[C@H](O)C(=O)NO [Tosedostat] + Cc1nc(Nc2ncc(C(=O)Nc3c(C)cccc3Cl)s2)cc(N2CCN(CCO)CC2)n1 [Dasatinib] (partner 0.075 µM)
Assay: as above
Settings: first compound 0.02 µM
Procedure, shortened: as §1

Cell Line	relative viability
NCI-H647	0.212
LCLC-97TM1	0.901
NCI-H2126	0.611
A-427	0.646
NCI-H650	0.471
RERF-LC-KJ	0.873
NCI-H1915	0.321
NCI-H661	1.02
NCI-H441	0.702
NCI-H1975	0.369
NCI-H1395	0.383
201T	0.566
NCI-H2023	0.585
HCC-827	0.308
NCI-H322M	0.272

Same assay, conditions: first compound 0.06325 µM

Cell Line	relative viability
NCI-H647	0.211
LCLC-97TM1	0.988
NCI-H2126	0.662
A-427	0.762
NCI-H650	0.49
RERF-LC-KJ	0.77
NCI-H1915	0.348
NCI-H661	0.834
NCI-H441	0.61
NCI-H1975	0.358
NCI-H1395	0.426
201T	0.632
NCI-H2023	0.571
HCC-827	0.34
NCI-H322M	0.256

Same assay, conditions: first compound 0.2 µM

Cell Line	relative viability
NCI-H647	0.218
LCLC-97TM1	0.811
NCI-H2126	0.636
A-427	0.733
NCI-H650	0.424
RERF-LC-KJ	0.771
NCI-H1915	0.306
NCI-H661	0.846
NCI-H441	0.583
NCI-H1975	0.35
NCI-H1395	0.448
201T	0.635
NCI-H2023	0.552
HCC-827	0.301
NCI-H322M	0.268

Same assay, conditions: first compound 0.6325 µM

Cell Line	relative viability
NCI-H647	0.197
LCLC-97TM1	0.819
NCI-H2126	0.63
A-427	0.712
NCI-H650	0.422
RERF-LC-KJ	0.623
NCI-H1915	0.277
NCI-H661	0.815
NCI-H441	0.445
NCI-H1975	0.268
NCI-H1395	0.468
201T	0.717
NCI-H2023	0.518
HCC-827	0.377
NCI-H322M	0.279

Same assay, conditions: first compound 2 µM

Cell Line	relative viability
NCI-H647	0.151
LCLC-97TM1	0.915
NCI-H2126	0.558
A-427	0.692
NCI-H650	0.388
RERF-LC-KJ	0.511
NCI-H1915	0.215
NCI-H661	0.695
NCI-H441	0.539
NCI-H1975	0.34
NCI-H1395	0.41
201T	0.553
NCI-H2023	0.505
HCC-827	0.288
NCI-H322M	0.246

Compound: CC(C)C[C@@H](C(=O)N[C@H](C(=O)OC1CCCC1)c1ccccc1)[C@H](O)C(=O)NO [Tosedostat] + O=C(CCCCCCC(=O)Nc1ccccc1)NO [Vorinostat] (partner 1 µM)
Assay: as above
Settings: first compound 0.02 µM
Procedure, shortened: as §1

Cell Line	relative viability
NCI-H647	0.842
LCLC-97TM1	0.682
NCI-H2126	0.635
A-427	0.893
NCI-H650	0.752
RERF-LC-KJ	0.692
NCI-H1915	0.51
NCI-H661	0.837
NCI-H441	0.809
NCI-H1975	0.741
NCI-H1395	0.773
201T	1.01
NCI-H2023	0.641
HCC-827	0.545
NCI-H322M	0.855

Same assay, conditions: first compound 0.06325 µM

Cell Line	relative viability
NCI-H647	0.502
LCLC-97TM1	0.602
NCI-H2126	0.822
A-427	0.893
NCI-H650	0.528
RERF-LC-KJ	0.676
NCI-H1915	0.457
NCI-H661	0.826
NCI-H441	0.654
NCI-H1975	0.742
NCI-H1395	0.77
201T	0.997
NCI-H2023	0.547
HCC-827	0.94
NCI-H322M	0.958

Same assay, conditions: first compound 0.2 µM

Cell Line	relative viability
NCI-H647	0.566
LCLC-97TM1	0.533
NCI-H2126	0.81
A-427	0.85
NCI-H650	0.416
RERF-LC-KJ	0.604
NCI-H1915	0.516
NCI-H661	0.796
NCI-H441	0.759
NCI-H1975	0.678
NCI-H1395	0.743
201T	0.99
NCI-H2023	0.62
HCC-827	0.861
NCI-H322M	0.887

Same assay, conditions: first compound 0.6325 µM

Cell Line	relative viability
NCI-H647	0.503
LCLC-97TM1	0.532
NCI-H2126	0.701
A-427	0.853
NCI-H650	0.334
RERF-LC-KJ	0.681
NCI-H1915	0.503
NCI-H661	0.775
NCI-H441	0.55
NCI-H1975	0.611
NCI-H1395	0.742
201T	0.962
NCI-H2023	0.358
HCC-827	0.73
NCI-H322M	0.995

Same assay, conditions: first compound 2 µM

Cell Line	relative viability
NCI-H647	0.686
LCLC-97TM1	0.47
NCI-H2126	0.79
A-427	0.801
NCI-H650	0.308
RERF-LC-KJ	0.619
NCI-H1915	0.527
NCI-H661	0.814
NCI-H441	0.547
NCI-H1975	0.622
NCI-H1395	0.595
201T	0.981
NCI-H2023	0.501
HCC-827	0.718
NCI-H322M	0.802
